Toxic doses and inconclusive results are not listed. Cut-off read from the data, not from the text of the source: active = T/C of 150% or more; inactive = T/C below 125%.
System: L1210 leukemia ip in BDF1 mice, survival T/C
Assay: NCI In Vivo Anticancer Drug Screen. Data for tumor model L1210 Leukemia (intraperitoneal) in B6D2F1 (BDF1) mice
Conditions: endpoint: mean survival time, higher = longer survival
In short: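 Mice bearing the transplanted tumor received compound or vehicle. Survival of the treated group was divided by that of the vehicle-treated control group to give the ratio.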

[1] = dose: 100.0 mg/kg/injection, schedule: Q04DX003 (ip), vehicle: Klucel (hydroxypropylcellulose) (HPC)
[2] = dose: 200.0 mg/kg/injection, schedule: Q04DX003 (ip), vehicle: Klucel (hydroxypropylcellulose) (HPC)
[3] = dose: 400.0 mg/kg/injection, schedule: Q04DX003 (ip), vehicle: Klucel (hydroxypropylcellulose) (HPC)
[4] = dose: 100.0 mg/kg/injection, schedule: Q01DX001 (ip), vehicle: saline
[5] = dose: 200.0 mg/kg/injection, schedule: Q01DX001 (ip), vehicle: saline

Measured: T/C

C=CC[S][Pb]([c]1ccccc1)([c]1ccccc1)[c]1ccccc1
inactive: dose: 3.0 mg/kg/injection, schedule: Q01DX009 (ip), vehicle: Klucel (hydroxypropylcellulose) (HPC) 106 % of control | dose: 6.0 mg/kg/injection, schedule: Q01DX009 (ip), vehicle: Klucel (hydroxypropylcellulose) (HPC) 90 % of control | dose: 12.5 mg/kg/injection, schedule: Q04DX002 (ip), vehicle: Klucel (hydroxypropylcellulose) (HPC) 103 % of control | dose: 25.0 mg/kg/injection, schedule: Q04DX002 (ip), vehicle: Klucel (hydroxypropylcellulose) (HPC) 91 % of control

CNC(=O)C(C)(C)c1ccccc1
inactive: dose: 100.0 mg/kg/injection, schedule: Q01DX009 (ip), vehicle: Klucel (hydroxypropylcellulose) (HPC) 97 % of control | [1] 96 % of control | dose: 200.0 mg/kg/injection, schedule: Q01DX009 (ip), vehicle: Klucel (hydroxypropylcellulose) (HPC) 95 % of control | [2] 95 % of control | dose: 400.0 mg/kg/injection, schedule: Q01DX009 (ip), vehicle: Klucel (hydroxypropylcellulose) (HPC) 97 % of control | [3] 95 % of control

Cc1[nH]c2ccccc2c1C(Cc1ccccc1N)c1c(C)[nH]c2ccccc12
inactive: dose: 50.0 mg/kg/injection, schedule: Q01DX001 (ip), vehicle: saline 101 % of control | [4] 104 % of control | [5] 101 % of control | dose: 400.0 mg/kg/injection, schedule: Q01DX001 (ip), vehicle: saline 104 % of control

CCCCCCCCCCCCC(=O)[O][Hg][c]1ccccc1
inactive: dose: 9.38 mg/kg/injection, schedule: Q01DX001 (ip), vehicle: steriod suspending solution 96 % of control | dose: 18.75 mg/kg/injection, schedule: Q01DX001 (ip), vehicle: steriod suspending solution 98 % of control

CN(C)C(=O)c1cc(NC(=O)Nc2ccc(C3=NCCN3)cc2)cc(NC(=O)Nc2ccc(C3=NCCN3)cc2)c1
active: dose: 15.0 mg/kg/injection, schedule: Q01DX Z (ip), vehicle: saline 158 % of control | dose: 30.0 mg/kg/injection, schedule: Q01DX Z (ip), vehicle: saline 222 % of control | dose: 60.0 mg/kg/injection, schedule: Q01DX Z (ip), vehicle: saline 250 % of control

C[n+]1csc(=S)[nH]1
inactive: dose: 100.0 mg/kg/injection, schedule: Q01DX009 (ip), vehicle: saline 98 % of control

COc1ccc(NC(=O)Nc2ccc(C)cc2C)cc1
inactive: dose: 100.0 mg/kg/injection, schedule: Q04DX003 (ip), vehicle: saline with Tween-80 93 % of control | dose: 200.0 mg/kg/injection, schedule: Q04DX003 (ip), vehicle: saline with Tween-80 90 % of control | dose: 400.0 mg/kg/injection, schedule: Q04DX003 (ip), vehicle: saline with Tween-80 95 % of control

CCOP(=S)(NN=C1CCC(C(C)(C)C)CC1)OCC (configuration not stated)
inactive: [4] 103 % of control | [5] 97 % of control

Cc1cc(N2CCC(N3CCCC3)CC2)nc(/N=C(\N)Nc2ccc(Cl)c(Cl)c2)n1
inactive: dose: 12.0 mg/kg/injection, schedule: Q01DX009 (ip), vehicle: saline 97 % of control | dose: 25.0 mg/kg/injection, schedule: Q01DX009 (ip), vehicle: saline 106 % of control | dose: 50.0 mg/kg/injection, schedule: Q01DX009 (ip), vehicle: saline 98 % of control

COC(=O)c1c2ccccc2nc2c1c(C)c(C)c1ccccc12
inactive: [1] 96 % of control | [2] 110 % of control | [3] 101 % of control

O=C(Oc1ccccc1)Oc1ccccc1
inactive: dose: 100.0 mg/kg/injection, schedule: Q04DX002 (ip), vehicle: Klucel (hydroxypropylcellulose) (HPC) 96 % of control | dose: 200.0 mg/kg/injection, schedule: Q04DX002 (ip), vehicle: Klucel (hydroxypropylcellulose) (HPC) 96 % of control | dose: 400.0 mg/kg/injection, schedule: Q04DX002 (ip), vehicle: Klucel (hydroxypropylcellulose) (HPC) 96 % of control

COc1ccccc1C1CCCCCCC1OS(=O)(=O)c1ccc(C)cc1 (configuration not stated)
inactive: dose: 18.75 mg/kg/injection, schedule: Q01DX009 (ip), vehicle: saline 97 % of control | dose: 37.5 mg/kg/injection, schedule: Q01DX009 (ip), vehicle: saline 95 % of control | dose: 75.0 mg/kg/injection, schedule: Q01DX001 (ip), vehicle: acetone 89 % of control | dose: 75.0 mg/kg/injection, schedule: Q01DX001 (ip), vehicle: saline 90 % of control | dose: 75.0 mg/kg/injection, schedule: Q01DX009 (ip), vehicle: saline 90 % of control | dose: 75.0 mg/kg/injection, schedule: Q04DX003 (ip), vehicle: saline 88 % of control | dose: 112.0 mg/kg/injection, schedule: Q01DX009 (ip), vehicle: saline 103 % of control | dose: 150.0 mg/kg/injection, schedule: Q01DX001 (ip), vehicle: saline 93 % of control | dose: 150.0 mg/kg/injection, schedule: Q04DX003 (ip), vehicle: saline 92 % of control | dose: 170.0 mg/kg/injection, schedule: Q01DX009 (ip), vehicle: saline 96 % of control | dose: 255.0 mg/kg/injection, schedule: Q01DX009 (ip), vehicle: saline 100 % of control | dose: 300.0 mg/kg/injection, schedule: Q01DX001 (ip), vehicle: acetone 89 % of control | dose: 300.0 mg/kg/injection, schedule: Q01DX001 (ip), vehicle: saline 92 % of control

— PubChem BioAssay AID248 (DTP/NCI, 2004)
